pKi: −log10 of the molar value. Where two headings read alike, the source gives them in different places.
Key:
[1] = target: T1, bovine vesicular acetylcholine transporter (VAChT) (Bos taurus, UniProt E1BK36); test: Radioligand Binding Assay; conditions: Bovine binding Ki, CHO-K1 membranes with recombinant bovine VAChT, [3H]Compound X6 0.3 nM
T1 sequence (E1BK36 1-524): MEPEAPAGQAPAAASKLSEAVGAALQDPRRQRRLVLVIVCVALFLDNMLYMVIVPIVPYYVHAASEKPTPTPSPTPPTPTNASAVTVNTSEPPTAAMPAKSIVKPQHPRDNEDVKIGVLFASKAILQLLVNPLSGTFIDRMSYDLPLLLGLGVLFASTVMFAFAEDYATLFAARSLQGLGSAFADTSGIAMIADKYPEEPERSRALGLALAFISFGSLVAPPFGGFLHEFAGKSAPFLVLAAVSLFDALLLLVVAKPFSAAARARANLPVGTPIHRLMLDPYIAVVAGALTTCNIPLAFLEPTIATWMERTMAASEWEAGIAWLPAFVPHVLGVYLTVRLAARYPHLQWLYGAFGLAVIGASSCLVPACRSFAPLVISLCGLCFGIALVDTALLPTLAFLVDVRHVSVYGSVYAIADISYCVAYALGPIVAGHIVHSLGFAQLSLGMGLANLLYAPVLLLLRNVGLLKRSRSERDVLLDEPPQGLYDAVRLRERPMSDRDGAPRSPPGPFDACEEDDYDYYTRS
Protocol: To measure binding affinity, CHO-K1 cells recombinantly expressing the bovine VAChT was generated as a stable cell line and subsequently used to produce membrane preparations.
Radioligand binding assays were conducted in disposable polypropylene 96-well plates. VAChT competition assays were initiated by the addition of bovine recombinant membrane homogenate (50 μg/well) in assay buffer (50 mM Tris-HCl, 120 mM NaCl, 5 mM KCl, 1 mM MgCl, and 2 mM CaCl, pH 7.4) containing [^3H]Compound X6 (0.3 nM) with or without competing ligand. The assay was allowed to equilibrate for 120 minutes at room temperature, before being filtered onto GF/C unifilter plates pre-coated in 0.3% polyethylenimine (Perkin Elmer Life and Analytical Sciences, Boston, Mass.) with a Filtermate 96 harvester (PerkinElmer Life and Analytical Sciences). Filters were washed in ice-cold 50 mM Tris-HCl, pH 7.4 buffer and then counted for radioactivity in a TopCount microplate scintillation counter after addition of 50 μL Microscint 20 (PerkinElmer). Non-specific binding was measured in the presence of 10 μM Compound X6. Apparent dissociation constants (Ki values) from the competition experiments were calculated using an iterative nonlinear regression curve-fitting program (GraphPAD Prism 6.0 Software, San Diego, Calif.) and are reported in Table 2.

Haemonchus contortus L3 = test: Haemonchus contortus, Larvae Stage 3 (HcL3) In Vitro Assay; conditions: Haemonchus contortus
[2] = tested on: Dirofilaria immitis microfilariae; test: Dirofilaria immitis, Microfilariae (DiMF) In Vitro Assay
[3] = 96 h, read-out: HcL3 MEC, Minimal Effective Concentration whereby worm motility is inhibited by approximately 70%, 37° C., tested 0.001-100 μM
[4] = Dirofilaria immitis, 72 h, read-out: Di MF, MEC, decrease in microfilariae motility by visual assessment, curve starting at 100 μM
[5] = 96 hours, 37° C., read-out: HcL3 MEC
[6] = Dirofilaria immitis, 72 hours, read-out: Di MF

Compound	pKi [1]	minimal effective concentration (Haemonchus contortus L3; [3]) [µM]	minimal effective concentration ([2]; MEC, decrease in microfilariae motility by visual assessment, 72 hours, curve starting at 100 μM, read-out: Di MF) [µM]	minimal effective concentration [2, 4] [µM]	minimal effective concentration (Haemonchus contortus L3; [5]) [µM]	minimal effective concentration [2, 6] [µM]
O=C(NCc1ccnc(Cl)c1)N1CC2(CCN(C/C=C/c3ccc(Cl)cc3)CC2)c2cc(OC(F)(F)F)ccc21 [Example 147, (E)-1′-(3-(4-chlorophenyl)allyl)-N-((2-chloropyridin-4-yl)methyl)-5-(trifluoromethoxy)spiro[indoline-3,4′-piperidine]-1-carboxamide]	6.49	3.9	4.8	–	–	–
O=C(NCc1ccnc(F)c1)N1CC2(CCN(C/C=C/c3ccc(Cl)cc3)CC2)c2c(OC(F)(F)F)ccc(Cl)c21 [Example 148, (E)-7-chloro-1′-(3-(4-chlorophenyl)allyl)-N-((2-fluoropyridin-4-yl)methyl)-4-(trifluoromethoxy)spiro[indoline-3,4′-piperidine]-1-carboxamide]	5.61	100	–	3.3	–	–
O=C(NCc1ccnc(Cl)c1)N1CC2(CCN(C/C=C/c3ccc(Cl)cc3)CC2)c2c1cccc2C(F)(F)F [Example 149, (E)-1′-(3-(4-chlorophenyl)allyl)-N-((2-chloropyridin-4-yl)methyl)-4-(trifluoromethyl)spiro[indoline-3,4′-piperidine]-1-carboxamide]	6.40	5.1	–	8.1	–	–
O=C(NCc1ccnc(Cl)c1)N1CC2(CCN(C/C=C/c3ccc(Cl)cc3)CC2)c2cc(OC(F)(F)F)c(Cl)cc21 [Example 150, (E)-6-chloro-1′-(3-(4-chlorophenyl)allyl)-N-((2-chloropyridin-4-yl)methyl)-5-(trifluoromethoxy)spiro[indoline-3,4′-piperidine]-1-carboxamide]	6.53	5.7	–	18.2	–	–
O=C(NCc1ccnc(Cl)c1)N1CC2(CCN(C/C=C/c3ccc(C(F)(F)F)cn3)CC2)c2cc(C(F)(F)F)ccc21 [Example 151, (E)-N-((2-chloropyridin-4-yl)methyl)-5-(trifluoromethyl)-1′-(3-(5-(trifluoromethyl)pyridin-2-yl)allyl)spiro[indoline-3,4′-piperidine]-1-carboxamide]	6.29	5.7	–	4.3	–	–
O=C(NCc1ccnc(Cl)c1)N1CC2(CCN(C/C=C/c3ccc(C(F)(F)F)cc3)CC2)c2c1cccc2C(F)(F)F [Example 152, (E)-N-((2-chloropyridin-4-yl)methyl)-4-(trifluoromethyl)-1′-(3-(4-(trifluoromethyl)phenyl)allyl)spiro[indoline-3,4′-piperidine]-1-carboxamide]	5.88	5.7	–	4.4	–	–
O=C(NCc1ccnc(Cl)c1)N1CC2(CCN(C/C=C/c3ccc(F)cc3)CC2)c2c1cccc2C(F)(F)F [Example 153, (E)-N-((2-chloropyridin-4-yl)methyl)-1′-(3-(4-fluorophenyl)allyl)-4-(trifluoromethyl)spiro[indoline-3,4′-piperidine]-1-carboxamide]	6.66	5.7	–	7.6	–	–
O=C(NCc1ccnc(Cl)c1)N1CC2(CCN(C/C=C/c3ccc(F)cc3)CC2)c2cc(C(F)(F)F)ccc21 [Example 154, (E)-N-((2-chloropyridin-4-yl)methyl)-1′-(3-(4-fluorophenyl)allyl)-5-(trifluoromethyl)spiro[indoline-3,4′-piperidine]-1-carboxamide]	6.55	–	–	–	6.6	2.8
Cc1c(F)ccc2c1C1(CCN(C/C=C/c3ccc(Cl)cc3)CC1)CN2C(=O)NCc1ccnc(Cl)c1 [Example 155, (E)-1′-(3-(4-chlorophenyl)allyl)-N-((2-chloropyridin-4-yl)methyl)-5-fluoro-4-methylspiro[indoline-3,4′-piperidine]-1-carboxamide]	7.13	7.3	–	3.3	–	–
O=C(NCc1ccnc(Cl)c1)N1CC2(CCN(C/C=C/c3ccc(Cl)cc3)CC2)c2c(Br)cccc21 [Example 156, (E)-4-bromo-1′-(3-(4-chlorophenyl)allyl)-N-((2-chloropyridin-4-yl)methyl)spiro[indoline-3,4′-piperidine]-1-carboxamide]	7.15	7.8	–	5.7	–	–
N#Cc1ccc(/C=C/CN2CCC3(CC2)CN(C(=O)NCc2ccnc(Cl)c2)c2ccc(F)c(Cl)c23)cc1 [Example 157, (E)-4-chloro-N-((2-chloropyridin-4-yl)methyl)-1′-(3-(4-cyanophenyl)allyl)-5-fluorospiro[indoline-3,4′-piperidine]-1-carboxamide]	7.64	8.1	–	11	–	–
O=C(NCc1ccnc(Cl)c1)N1CC2(CCN(C/C=C/c3ccc(F)cc3)CC2)c2c1ccc(F)c2Cl [Example 158, (E)-4-chloro-N-((2-chloropyridin-4-yl)methyl)-5-fluoro-1′-(3-(4-fluorophenyl)allyl)spiro[indoline-3,4′-piperidine]-1-carboxamide]	7.26	–	–	–	9.9	4.3
O=C(NCc1ccnc(Cl)c1)N1CC2(CCN(C/C=C/c3ccc(Cl)cc3)CC2)c2c1ccc(OC(F)(F)F)c2Cl [Example 159, (E)-4-chloro-1′-(3-(4-chlorophenyl)allyl)-N-((2-chloropyridin-4-yl)methyl)-5-(trifluoromethoxy)spiro[indoline-3,4′-piperidine]-1-carboxamide]	6.25	–	–	–	10	24
O=C(NCc1ccnc(Cl)c1)N1CC2(CCN(C/C=C/c3ccc(Cl)cc3)CC2)c2cc(C(F)(F)F)ccc21 [Example 160, (E)-1′-(3-(4-chlorophenyl)allyl)-N-((2-chloropyridin-4-yl)methyl)-5-(trifluoromethyl)spiro[indoline-3,4′-piperidine]-1-carboxamide]	6.65	–	–	–	10	10
O=C(NCc1ccnc(Cl)c1)N1CC2(CCN(C/C=C/c3ccc(F)cc3)CC2)c2c(Cl)cc(Cl)cc21 [Example 161, (E)-4,6-dichloro-N-((2-chloropyridin-4-yl)methyl)-1′-(3-(4-fluorophenyl)allyl)spiro[indoline-3,4′-piperidine]-1-carboxamide]	6.59	10	–	10	–	–
CS(=O)(=O)c1ccc2c(c1)N(C(=O)NCc1ccnc(Cl)c1)CC21CCN(C/C=C/c2ccc(Cl)cc2)CC1 [Example 162, (E)-1′-(3-(4-chlorophenyl)allyl)-N-((2-chloropyridin-4-yl)methyl)-6-(methylsulfonyl)spiro[indoline-3,4′-piperidine]-1-carboxamide]	7.63	10	–	10	–	–
O=C(NCc1ccnc(Cl)c1)N1CC2(CCN(C/C=C/c3ccc(F)cc3)CC2)c2cc(OC(F)(F)F)ccc21 [Example 163, (E)-N-((2-chloropyridin-4-yl)methyl)-1′-(3-(4-fluorophenyl)allyl)-5-(trifluoromethoxy)spiro[indoline-3,4′-piperidine]-1-carboxamide]	6.26	–	–	–	10.1	2.5
